Test results as given in patent publication US20050130197A1, “Homogeneous fluorescence polarization assay for high throughput screening” (priority 2003, published 2005).
Like-named read-outs stand apart in the source and are kept apart here. Where a SMILES comes first, the peptide text is derived from it. Where no end group is shown, it is not given here. [ ]: non-standard residue; d: D form. NMeF = CN[C@@H](Cc1ccccc1)C(=O)O

What was measured:
human NPFF2 receptor [1] = biological target: T1, human NPFF2 receptor (Homo sapiens, UniProt Q9Y5X5); settings: data from Eur. J. Pharmacol. 451: 245-256 (2002); read-out: [125I]Ligand Filtration Human Ki (c); cited from earlier work
T1 construct: purchased Euroscreen s.a; (Brussels, Belgium)

human NPFF2 receptor [2] = biological target: T1, human NPFF2 receptor; assay: Fluorescence polarization (FP) competition binding assay, TAMRA-NPFF tracer, 0.1% Pluronic F-127; settings: for Ki: FP competition binding, TAMRA-NPFF tracer, human NPFF2 receptor membrane preparation, means ± S.E. of three separate experiments; for affinity to the TAMRA-NPFF binding site / binding to NPFF2 receptor: 10 μM, FP assay; for Ki for inhibiting TAMRA-NPFF binding (in words): FP displacement curves
Experimental: Human NPFF2 receptor membrane homogenates were diluted in a binding buffer (50 mM HEPES buffer, pH 7.4 and various concentrations of detergents) to the membrane concentration required. In general, the binding assay was performed in a final volume of 40 μl: 20 μl of displacing ligand, 10 μl of fluorescent tracer, and 10 μl of diluted receptor membrane preparation (3.6-4.2 ug protein/well depending on the assay), which were added sequentially. The reaction was incubated at room temperature for 0.5-24 h before FP was measured depending on each experiment.
FP binding data were analyzed and fitted using GraphPad Prism® software (GraphPad Software, Inc., San Diego, Calif.). Competitive binding data was fit to a one-site competitive binding equation using nonlinear regression curve fitting. IC50 values were determined by nonlinear regression analysis of the inhibition curves. Data points in the displacement curves and in the graphs of DMSO, nonionic detergents, Chicago Sky Blue 6B and tartrazine consist of an average of 4-6 repetitions. All error bars represent ±1 standard deviation unit of the spread of the data except for displacement curves, where the error bars represent ±SEM. mP is defined by the following equation: mP=1000×(I∥−I⊥)/(I∥+I⊥) where mP=milli-polarization, I∥=parallel component of the emitted light, and I⊥=perpendicular component of the emitted light. Assay precision was assessed by calculating the Z′ value: Z′=1−[(3*σbound)+(3*σdisplaced)/|(mPbound−mPdisplaced)|] where σ is the standard deviation in the signal, mP: the subscript “bound” corresponds to the signal obtained in the absence of a displacing substance; and the subscript “displaced” corresponds to the signal of a completely displaced ligand (Zhang, J-H. et al., J. Biomol. Screen., (1999) 4, 67-73; Banks, P. et al., J. Biomol. Screen., (2002) 7, 111-117). The denominator of the equation calculates the specific binding expressed in the absolute value of mP difference, and the numerator calculates the precision in both bound and displaced signals. Background correction was done after each analysis by subtracting blank parallel and perpendicular intensities from the respective intensities. According to Z′ value model, the Z′ values of above 0.5 indicate excellent assays.

human NPFF2 receptor [3] = biological target: T1, human NPFF2 receptor; settings: data from J. Biol. Chem. 275: 39324-39331 (2000); read-out: [125I]Ligand Filtration Human Ki (b); cited from earlier work
[4] = biological target: T2, human NPFF2 receptor membranes (Homo sapiens, UniProt Q9Y5X5); assay: In vitro functional FP assay with GDP and GTPγS (GTP binding assay); assay type: biochemical; settings: one agonist fixed at 2-3×IC50, other ligand varied; 3 μM GDP and 5 μM GTPγS
T2 construct: purchased Euroscreen s.a; (Brussels, Belgium)
T2 sequence (Q9Y5X5 whole entry): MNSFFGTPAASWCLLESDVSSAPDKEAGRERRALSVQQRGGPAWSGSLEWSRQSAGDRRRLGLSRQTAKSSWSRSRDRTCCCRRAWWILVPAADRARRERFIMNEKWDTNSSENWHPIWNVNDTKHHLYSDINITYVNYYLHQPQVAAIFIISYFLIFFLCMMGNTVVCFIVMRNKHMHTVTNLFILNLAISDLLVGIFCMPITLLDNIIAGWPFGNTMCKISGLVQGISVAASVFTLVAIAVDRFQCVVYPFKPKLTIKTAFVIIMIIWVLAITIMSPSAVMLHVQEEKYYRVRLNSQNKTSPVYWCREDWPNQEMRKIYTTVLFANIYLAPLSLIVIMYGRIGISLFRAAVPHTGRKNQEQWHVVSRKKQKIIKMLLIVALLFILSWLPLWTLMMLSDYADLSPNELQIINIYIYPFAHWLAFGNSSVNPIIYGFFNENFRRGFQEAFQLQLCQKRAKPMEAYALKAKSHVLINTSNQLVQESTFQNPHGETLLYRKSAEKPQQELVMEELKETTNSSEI
Experimental: The binding assay was performed in a final volume of 40 μl as follows: 10 μl of different concentrations of displacing ligand, 10 μl of tracer, and 10 μl of diluted receptor membrane preparation (3.6-4.2 ug protein/well), which were added sequentially. After 15 min, 10 μl of the binding buffer with 3-10 μM GDP and 5-50 μM GTPγS was added. The reaction was incubated at room temperature for 15-120 min.
The concentrations of the other agonist increased from 0.0019 nM to 9.0 μM per well.
Next a combination of an agonist with a fixed concentration and an antagonist with varying concentrations was tested under the same conditions.

T1 sequence (Q9Y5X5 whole entry): as above

Molecule | Ki (human NPFF2 receptor [1]) [nM] | Ki (human NPFF2 receptor [2]) [nM] | affinity to the TAMRA-NPFF binding site / binding to NPFF2 receptor (human NPFF2 receptor [2]) | Ki for inhibiting TAMRA-NPFF binding (in words) (human NPFF2 receptor [2]) | Ki (human NPFF2 receptor [3]) [nM] | also measured
CC(C)C[C@H](NC(=O)[C@H](N)Cc1ccc(O)cc1)C(=O)N(C)[C@@H](Cc1ccccc1)C(=O)N[C@@H](CCC(N)=O)C(=O)N1CCC[C@H]1C(=O)N[C@@H](CCC(N)=O)C(=O)N[C@@H](CCCN=C(N)N)C(=O)N[C@@H](Cc1ccccc1)C(N)=O [[D-Tyr^1(NMe)Phe^3]NPFF, [D-Tyr^1, (N-Me)Phe^3]NPFF] (H-[dY]L[NMeF]QPQRF-NH2) | 0.18 ± 0.04 | 0.46 ± 0.05 |  |  |  | 
CC(COc1ccccc1)N(CCCl)Cc1ccccc1 (stereo not drawn) [phenoxybenzamine] |  |  | little or no affinity |  |  | 
APSEPHHPGDQATQDQLAQYYSDLYQYITFVTRPRF-NH2 [Frog PP] |  |  |  | nanomolar range | 40 ± 11 | assay window (FIG. 8) (human NPFF2 receptor [2]; 0.1% trifluoroacetic acid added to assay buffer): 100 mP
NC(N)=NCCC[C@@H](NC(=O)C(c1ccccc1)c1ccccc1)C(=O)NCc1ccc(O)cc1 [BIBP3226] | 84 ± 12 | 96 ± 13 |  |  | 1260 ± 111 | affinity state in in vitro functional assays [4]: monophasic affinity state
COc1cc(CNC(=O)CCCC/C=C/C(C)C)ccc1O [capsaicin] |  |  | little or no affinity |  |  | 
CC(C)C[C@H](NC(=O)[C@H](N)Cc1ccc(O)cc1)C(=O)N(C)[C@@H](Cc1ccccc1)C(=O)N[C@@H](CCC(N)=O)C(=O)N1CCC[C@H]1C(=O)N[C@@H](CCC(N)=O)C(=O)N[C@@H](CCCNC(=N)N)C(=O)N[C@@H](Cc1ccccc1)C(N)=O [[D-Tyr^1(NMe)Phe^3]NPFF, [D-Tyr^1, (N-Me)Phe^3]NPFF] (H-[dY]L[NMeF]QPQRF-NH2) |  |  |  | nanomolar range |  | 
